{
  "source": "PubChem BioAssay (NCI)",
  "assay_in_all_cases": "NCI anticancer screen, dose series, 48 h",
  "key": {"[1]": {"test_system": "SNB-19 CNS"}, "[2]": {"test_system": "HOP-92 NSCLC"}, "[3]": {"test_system": "SF-268 CNS"}, "[4]": {"test_system": "MDA-MB-231 breast"}, "[5]": {"test_system": "NCI-H23 lung"}, "[6]": {"test_system": "A498 renal"}, "[7]": {"test_system": "SK-OV-3 ovarian"}, "[8]": {"test_system": "K-562 leukemia"}, "[9]": {"test_system": "OVCAR-5 ovarian"}, "[10]": {"test_system": "UO-31 renal"}, "[11]": {"test_system": "SN12C renal"}, "[12]": {"test_system": "HS 578T breast"}, "[13]": {"test_system": "EKVX NSCLC"}, "[14]": {"test_system": "M14 melanoma"}, "[15]": {"test_system": "CAKI-1 renal"}, "[16]": {"test_system": "DU-145 prostate"}, "[17]": {"test_system": "NCI/ADR-RES ovarian"}, "[18]": {"test_system": "TK-10 renal"}, "[19]": {"test_system": "HCC-2998 colon"}, "[20]": {"test_system": "HCT-15 colon"}, "[21]": {"test_system": "SW-620 colon"}, "[22]": {"test_system": "SF-539 CNS"}, "[23]": {"test_system": "SK-MEL-5 melanoma"}, "[24]": {"test_system": "HT29 colon"}, "[25]": {"test_system": "KM12 colon"}, "[26]": {"test_system": "NCI-H460 lung"}, "[27]": {"test_system": "SK-MEL-28 melanoma"}, "[28]": {"test_system": "T-47D breast"}, "[29]": {"test_system": "NCI-H226 lung"}, "[30]": {"test_system": "SF-295 CNS"}},
  "note": "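96-well plates; 48 h exposure; 5 concentrations. Endpoints by linear interpolation between flanking doses. Not reached: highest tested concentration assigned. GI50 = concentration required for 50% inhibition of growth. TGI marks complete inhibition of growth.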",
  "data": [
    {"smiles": "CCCCCc1ccc(S(=O)(=O)N(C(C)=O)c2cc(-c3csc(N(C)C(C)=O)n3)ccc2N2CCN(C)CC2)cc1", "values": [
      {"measurement": "GI50", "setting": "[1]", "value": 8.81, "unit": "µM"},
      {"measurement": "TGI", "setting": "[1]", "value": 16.6, "unit": "µM"},
      {"measurement": "GI50", "setting": "[2]", "value": 5.97, "unit": "µM"},
      {"measurement": "TGI", "setting": "[2]", "value": 16, "unit": "µM"},
      {"measurement": "GI50", "setting": "[3]", "value": 7.35, "unit": "µM"},
      {"measurement": "TGI", "setting": "[3]", "value": 18, "unit": "µM"},
      {"measurement": "GI50", "setting": "[4]", "value": 4.01, "unit": "µM"},
      {"measurement": "TGI", "setting": "[4]", "value": 11.8, "unit": "µM"},
      {"measurement": "GI50", "setting": "[5]", "value": 8.92, "unit": "µM"},
      {"measurement": "TGI", "setting": "[5]", "value": 17.3, "unit": "µM"},
      {"measurement": "GI50", "setting": "[6]", "value": 8.43, "unit": "µM"},
      {"measurement": "TGI", "setting": "[6]", "value": 16.2, "unit": "µM"},
      {"measurement": "GI50", "setting": "[7]", "value": 9.9, "unit": "µM"},
      {"measurement": "TGI", "setting": "[7]", "value": 18.1, "unit": "µM"},
      {"measurement": "GI50", "setting": "[8]", "value": 1.53, "unit": "µM"},
      {"measurement": "TGI", "setting": "[8]", "value": 59.3, "unit": "µM"},
      {"measurement": "GI50", "setting": "[9]", "value": 8.44, "unit": "µM"},
      {"measurement": "TGI", "setting": "[9]", "value": 16.2, "unit": "µM"},
      {"measurement": "GI50", "setting": "[10]", "value": 7.22, "unit": "µM"},
      {"measurement": "TGI", "setting": "[10]", "value": 14.6, "unit": "µM"},
      {"measurement": "GI50", "setting": "[11]", "value": 7.7, "unit": "µM"},
      {"measurement": "TGI", "setting": "[11]", "value": 16.2, "unit": "µM"},
      {"measurement": "GI50", "setting": "[12]", "value": 8.77, "unit": "µM"},
      {"measurement": "TGI", "setting": "[12]", "value": 25.6, "unit": "µM"},
      {"measurement": "GI50", "setting": "[13]", "value": 7.7, "unit": "µM"},
      {"measurement": "TGI", "setting": "[13]", "value": 15.8, "unit": "µM"},
      {"measurement": "GI50", "setting": "[14]", "value": 3.25, "unit": "µM"},
      {"measurement": "TGI", "setting": "[14]", "value": 12.2, "unit": "µM"},
      {"measurement": "GI50", "setting": "[15]", "value": 6.19, "unit": "µM"},
      {"measurement": "TGI", "setting": "[15]", "value": 13.6, "unit": "µM"},
      {"measurement": "GI50", "setting": "[16]", "value": 7.52, "unit": "µM"},
      {"measurement": "TGI", "setting": "[16]", "value": 15.4, "unit": "µM"},
      {"measurement": "GI50", "setting": "[17]", "value": 8.01, "unit": "µM"},
      {"measurement": "TGI", "setting": "[17]", "value": 17.3, "unit": "µM"},
      {"measurement": "GI50", "setting": "[18]", "value": 9.62, "unit": "µM"},
      {"measurement": "TGI", "setting": "[18]", "value": 17.9, "unit": "µM"},
      {"measurement": "GI50", "setting": "[19]", "value": 6, "unit": "µM"},
      {"measurement": "TGI", "setting": "[19]", "value": 13.2, "unit": "µM"},
      {"measurement": "GI50", "setting": "[20]", "value": 2.13, "unit": "µM"},
      {"measurement": "TGI", "setting": "[20]", "value": 8.02, "unit": "µM"},
      {"measurement": "GI50", "setting": "[21]", "value": 1.51, "unit": "µM"},
      {"measurement": "TGI", "setting": "[21]", "value": 5.99, "unit": "µM"},
      {"measurement": "GI50", "setting": "[22]", "value": 7.18, "unit": "µM"},
      {"measurement": "TGI", "setting": "[22]", "value": 14.5, "unit": "µM"},
      {"measurement": "GI50", "setting": "[23]", "value": 7.04, "unit": "µM"},
      {"measurement": "TGI", "setting": "[23]", "value": 14.4, "unit": "µM"},
      {"measurement": "GI50", "setting": "[24]", "value": 2.11, "unit": "µM"},
      {"measurement": "TGI", "setting": "[24]", "value": 7.89, "unit": "µM"},
      {"measurement": "GI50", "setting": "[25]", "value": 7.83, "unit": "µM"},
      {"measurement": "TGI", "setting": "[25]", "value": 17.2, "unit": "µM"},
      {"measurement": "GI50", "setting": "[26]", "value": 1.7, "unit": "µM"},
      {"measurement": "TGI", "setting": "[26]", "value": 6.22, "unit": "µM"},
      {"measurement": "GI50", "setting": "[27]", "value": 7.98, "unit": "µM"},
      {"measurement": "TGI", "setting": "[27]", "value": 15.6, "unit": "µM"},
      {"measurement": "GI50", "setting": "[28]", "value": 7.66, "unit": "µM"},
      {"measurement": "TGI", "setting": "[28]", "value": 18, "unit": "µM"},
      {"measurement": "GI50", "setting": "[29]", "value": 10.6, "unit": "µM"},
      {"measurement": "TGI", "setting": "[29]", "value": 24.1, "unit": "µM"},
      {"measurement": "GI50", "setting": "[30]", "value": 2.56, "unit": "µM"}
    ]}
  ]
}
